Experimental data taken from the supplement of paper PMC10307832.

Key:
Assay in all cases: relative viability (nuclei count vs DMSO), 5 days (fraction); higher = more cells survive
BEN = system: BEN
Summary of the method: (§1)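 For relative viability, nuclei counts in treated wells were divided by those in vehicle wells. Lung cancer cell lines had been pin-tool dosed in 1536-well plates the day after seeding and cultured for 5 days, then fixed and stained in one step (final 0.05% Triton X-100, 1% formaldehyde, 1 ug/ml Hoechst) and imaged at 4×. Doses were one drug alone or a fixed anchor-drug dose plus five library-drug doses (not always all listed) in √10 steps, and values are duplicate-plate medians.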

ChaGo-K-1 = system: ChaGo-K-1
Summary of the method: as §1

H3255 = system: H3255
Summary of the method: as §1

HCC-15 = system: HCC-15
Summary of the method: as §1

HCC-78 = system: HCC-78
Summary of the method: as §1

LC-2-ad = system: LC-2-ad
Summary of the method: as §1

LCLC-97TM1 = system: LCLC-97TM1
Summary of the method: as §1

LK-2 = system: LK-2
Summary of the method: as §1

LU99A = system: LU99A
Summary of the method: as §1

LXF-289 = system: LXF-289
Summary of the method: as §1

NCI-H1651 = system: NCI-H1651
Summary of the method: as §1

NCI-H1666 = system: NCI-H1666
Summary of the method: as §1

NCI-H1944 = system: NCI-H1944
Summary of the method: as §1

NCI-H2087 = system: NCI-H2087
Summary of the method: as §1

NCI-H2342 = system: NCI-H2342
Summary of the method: as §1

NCI-H322M = system: NCI-H322M
Summary of the method: as §1

NCI-H358 = system: NCI-H358
Summary of the method: as §1

NCI-H596 = system: NCI-H596
Summary of the method: as §1

NCI-H650 = system: NCI-H650
Summary of the method: as §1

NCI-H661 = system: NCI-H661
Summary of the method: as §1

NCI-H838 = system: NCI-H838
Summary of the method: as §1

PC-3 [JPC-3] = system: PC-3 [JPC-3]
Summary of the method: as §1

SK-MES-1 = system: SK-MES-1
Summary of the method: as §1

UMC-11 = system: UMC-11
Summary of the method: as §1

## C[C@@H]1CN(CC(=O)Nc2ccc3c(c2)Cc2cccc(-c4cc(=O)cc(N5CCOCC5)o4)c2S3)C[C@H](C)O1 + Cc1nc(Nc2ncc(C(=O)Nc3c(C)cccc3Cl)s2)cc(N2CCN(CCO)CC2)n1 [Dasatinib] (partner 0.075 µM)
BEN; first compound 0.04 µM
  relative viability: 0.308
BEN; first compound 0.1265 µM
  relative viability: 0.265
BEN; first compound 0.4 µM
  relative viability: 0.333
BEN; first compound 4 µM
  relative viability: 0.377
ChaGo-K-1; first compound 0.04 µM
  relative viability: 0.603
ChaGo-K-1; first compound 0.1265 µM
  relative viability: 0.617
ChaGo-K-1; first compound 0.4 µM
  relative viability: 0.553
ChaGo-K-1; first compound 4 µM
  relative viability: 0.524
H3255; first compound 0.04 µM
  relative viability: 0.432
H3255; first compound 0.1265 µM
  relative viability: 0.347
H3255; first compound 0.4 µM
  relative viability: 0.424
H3255; first compound 4 µM
  relative viability: 0.346
HCC-15; first compound 0.04 µM
  relative viability: 0.659
HCC-15; first compound 0.1265 µM
  relative viability: 0.6
HCC-15; first compound 0.4 µM
  relative viability: 0.531
HCC-15; first compound 4 µM
  relative viability: 0.455
HCC-78; first compound 0.04 µM
  relative viability: 0.366
HCC-78; first compound 0.1265 µM
  relative viability: 0.363
HCC-78; first compound 0.4 µM
  relative viability: 0.362
HCC-78; first compound 4 µM
  relative viability: 0.519
LC-2-ad; first compound 0.04 µM
  relative viability: 0.583
LC-2-ad; first compound 0.1265 µM
  relative viability: 0.55
LC-2-ad; first compound 0.4 µM
  relative viability: 0.487
LC-2-ad; first compound 4 µM
  relative viability: 0.492
LCLC-97TM1; first compound 0.04 µM
  relative viability: 0.839
LCLC-97TM1; first compound 0.1265 µM
  relative viability: 0.744
LCLC-97TM1; first compound 0.4 µM
  relative viability: 0.794
LCLC-97TM1; first compound 4 µM
  relative viability: 0.893
LK-2; first compound 0.1265 µM
  relative viability: 0.301
LK-2; first compound 0.4 µM
  relative viability: 0.336
LK-2; first compound 4 µM
  relative viability: 0.437
LU99A; first compound 0.04 µM
  relative viability: 0.523
LU99A; first compound 0.1265 µM
  relative viability: 0.491
LU99A; first compound 0.4 µM
  relative viability: 0.488
LU99A; first compound 4 µM
  relative viability: 0.523
LXF-289; first compound 0.04 µM
  relative viability: 0.185
LXF-289; first compound 0.1265 µM
  relative viability: 0.223
LXF-289; first compound 0.4 µM
  relative viability: 0.203
LXF-289; first compound 4 µM
  relative viability: 0.232
NCI-H1651; first compound 0.04 µM
  relative viability: 0.47
NCI-H1651; first compound 0.1265 µM
  relative viability: 0.411
NCI-H1651; first compound 0.4 µM
  relative viability: 0.478
NCI-H1651; first compound 4 µM
  relative viability: 0.348
NCI-H1666; first compound 0.04 µM
  relative viability: 0.831
NCI-H1666; first compound 0.1265 µM
  relative viability: 0.805
NCI-H1666; first compound 0.4 µM
  relative viability: 0.905
NCI-H1666; first compound 4 µM
  relative viability: 0.788
NCI-H1944; first compound 0.04 µM
  relative viability: 0.21
NCI-H1944; first compound 0.1265 µM
  relative viability: 0.236
NCI-H1944; first compound 0.4 µM
  relative viability: 0.263
NCI-H1944; first compound 4 µM
  relative viability: 0.264
NCI-H2087; first compound 0.04 µM
  relative viability: 0.971
NCI-H2087; first compound 0.1265 µM
  relative viability: 0.852
NCI-H2087; first compound 0.4 µM
  relative viability: 0.894
NCI-H2087; first compound 4 µM
  relative viability: 0.743
NCI-H2342; first compound 0.04 µM
  relative viability: 0.326
NCI-H2342; first compound 0.1265 µM
  relative viability: 0.292
NCI-H2342; first compound 0.4 µM
  relative viability: 0.29
NCI-H2342; first compound 4 µM
  relative viability: 0.306
NCI-H322M; first compound 0.04 µM
  relative viability: 0.277
NCI-H322M; first compound 0.1265 µM
  relative viability: 0.262
NCI-H322M; first compound 0.4 µM
  relative viability: 0.26
NCI-H322M; first compound 4 µM
  relative viability: 0.24
NCI-H358; first compound 0.04 µM
  relative viability: 0.2
NCI-H358; first compound 0.1265 µM
  relative viability: 0.163
NCI-H358; first compound 0.4 µM
  relative viability: 0.144
NCI-H358; first compound 4 µM
  relative viability: 0.157
NCI-H596; first compound 0.04 µM
  relative viability: 0.568
NCI-H596; first compound 0.1265 µM
  relative viability: 0.512
NCI-H596; first compound 0.4 µM
  relative viability: 0.572
NCI-H596; first compound 4 µM
  relative viability: 0.484
NCI-H650; first compound 0.04 µM
  relative viability: 0.45
NCI-H650; first compound 0.1265 µM
  relative viability: 0.445
NCI-H650; first compound 0.4 µM
  relative viability: 0.359
NCI-H650; first compound 4 µM
  relative viability: 0.384
NCI-H661; first compound 0.04 µM
  relative viability: 0.919
NCI-H661; first compound 0.1265 µM
  relative viability: 0.881
NCI-H661; first compound 0.4 µM
  relative viability: 0.968
NCI-H661; first compound 4 µM
  relative viability: 0.797
NCI-H838; first compound 0.04 µM
  relative viability: 0.27
NCI-H838; first compound 0.1265 µM
  relative viability: 0.233
NCI-H838; first compound 0.4 µM
  relative viability: 0.221
NCI-H838; first compound 4 µM
  relative viability: 0.188
PC-3 [JPC-3]; first compound 0.04 µM
  relative viability: 0.983
PC-3 [JPC-3]; first compound 0.1265 µM
  relative viability: 1.06
PC-3 [JPC-3]; first compound 0.4 µM
  relative viability: 1.01
PC-3 [JPC-3]; first compound 4 µM
  relative viability: 0.918
SK-MES-1; first compound 0.04 µM
  relative viability: 0.444
SK-MES-1; first compound 0.1265 µM
  relative viability: 0.353
SK-MES-1; first compound 0.4 µM
  relative viability: 0.398
SK-MES-1; first compound 4 µM
  relative viability: 0.263
UMC-11; first compound 0.04 µM
  relative viability: 0.475
UMC-11; first compound 0.1265 µM
  relative viability: 0.478
UMC-11; first compound 0.4 µM
  relative viability: 0.505
UMC-11; first compound 4 µM
  relative viability: 0.448
